In brackets after ≈: the same amount, converted by molar mass.
Experiments:
PBP4 = conditions: cited from earlier work
CA- and HA-MRSA strains = experiment: Synergy assay, cefuroxime with two-fold dilutions of oxacillin; format: cell-based, Staphylococcus aureus; conditions: in combination with two-fold dilutions of oxacillin
Method: (§1) Minimum inhibitory concentrations and minimum bactericidal concentrations (MIC and MBC, respectively) were determined for each isolate in triplicate by microdilution techniques with an inoculum of 5×10^5 CFU/ml according to the Clinical and Laboratory Standards Institute guidelines. Aliquots (5 μl) from clear wells were plated onto TSA drug-free plates for the determination of MBCs, followed by incubation at 37° C. for 24 and 48 hours. For the mutant strains, each one of the three clones was tested. MIC data were reported as median values from at least three independent experiments for each antibiotic. Also, strains containing pEPSA5-based plasmids were tested with and without xylose induction, but chloramphenicol was not added to avoid interference with beta-lactam resistance evaluation. […] The correct inocula were confirmed by plating serial dilutions on agar.

COL wild-type = experiment: MIC by microdilution (CLSI); format: cell-based, Staphylococcus aureus; conditions: Staphylococcus aureus, read-out: MICs
From the text: (§2) The present invention was described based on a series of experiments examining the biological basis for CA-MRSA strains versus HA-MRSA strains, focusing on the role of PBPs in CA-MRSA and generally in β-lactam resistance. Experiments were first performed using mutants of various PBPs. In-frame deletion mutants of the genes encoding PBP3 (MW1504) and PBP4 (MW0604), pbp3 and pbp4 respectively, were generated in the CA-MRSA strain MW2 and in HA-MRSA strain COL using the temperature-sensitive allelic replacement vector pMAD (Arnaud, M. et al. 2004. Appl. Environ. Microbiol. 70:6887-6891). PBP4 was also deleted in the HA-MRSA strains Mu50 and N315 and in the CA-MRSA strain USA300. […] Minimum inhibitory concentrations (MICs) were determined according to the Clinical and Laboratory Standards Institute and are a standard method for defining antibiotic efficacy against different organisms. Bacteria, grown to an OD650=1, were added to cation-supplemented Mueller Hinton broth (CSMHB) to achieve a final concentration of 5×10^5 CFU/ml.
(§3) Although PBP4, similar to PBP2A, binds with low affinity to many β-lactams, PBP4 binds cefoxitin, a semi-synthetic β-lactam derived from cephamycin C, with high affinity (Nair, S. R. and C. E. Cherubin. 1978. Antimicrob. Agents Chemother. 14:866-875).
as §1

MW2 (USA400) wild-type = experiment: MIC by microdilution (CLSI); format: cell-based, Staphylococcus aureus; conditions: Staphylococcus aureus, USA400, read-out: MICs
From the text: as §2, §3, §1

USA300 wild-type = experiment: MIC by microdilution (CLSI); format: cell-based, Staphylococcus aureus; conditions: Staphylococcus aureus, USA300, read-out: MICs
From the text: as §2, §3, §1

MW2 ex Δpbp4 = experiment: MIC by microdilution (CLSI); format: cell-based, Staphylococcus aureus; conditions: Staphylococcus aureus, read-out: MICs
From the text: as §2, §1

MW2 Δpbp3/4 = experiment: MIC by microdilution (CLSI); format: cell-based, Staphylococcus aureus; conditions: Staphylococcus aureus, read-out: MICs
From the text: as §2, §1

MW2 Δpbp3 = experiment: MIC by microdilution (CLSI); format: cell-based, Staphylococcus aureus; conditions: Staphylococcus aureus, read-out: MICs
From the text: as §2, §1

MW2 Δpbp4::pbp4 = experiment: MIC by microdilution (CLSI); format: cell-based, Staphylococcus aureus; conditions: Staphylococcus aureus, read-out: MICs
From the text: as §2, §1

MW2 Δpbp4 = experiment: MIC by microdilution (CLSI); format: cell-based, Staphylococcus aureus
From the text: as §2, §1

N315 wild-type = experiment: MIC by microdilution (CLSI); format: cell-based, Staphylococcus aureus; conditions: Staphylococcus aureus, read-out: MICs
From the text: as §2, §1

USA300 Δpbp4 = experiment: MIC by microdilution (CLSI); format: cell-based, Staphylococcus aureus
From the text: as §2, §1

[1] = test system: MW2 ex (MW2 cured of plasmid pMW2); experiment: MIC by microdilution (CLSI); format: cell-based; conditions: Staphylococcus aureus, Table 1
From the text: as §2, with “Experiments” for “The present invention was described based on a series of experiments examining the biological basis for CA-MRSA strains versus HA-MRSA strains, focusing on the role of PBPs in CA-MRSA and generally in β-lactam resistance. Experiments”
as §1

MW2 ex Δpbp3 = experiment: MIC by microdilution (CLSI); format: cell-based; conditions: Staphylococcus aureus, read-out: MICs
From the text: as §2, with “Experiments” for “The present invention was described based on a series of experiments examining the biological basis for CA-MRSA strains versus HA-MRSA strains, focusing on the role of PBPs in CA-MRSA and generally in β-lactam resistance. Experiments”
as §1

MW2 ex Δpbp3/4 = experiment: MIC by microdilution (CLSI); format: cell-based, Staphylococcus aureus; conditions: Staphylococcus aureus, read-out: MICs
From the text: as §2, with “Experiments” for “The present invention was described based on a series of experiments examining the biological basis for CA-MRSA strains versus HA-MRSA strains, focusing on the role of PBPs in CA-MRSA and generally in β-lactam resistance. Experiments”
as §1

Mu50 wild-type = experiment: MIC by microdilution (CLSI); format: cell-based, Staphylococcus aureus; conditions: Staphylococcus aureus, read-out: MICs
From the text: as §2, with “Experiments” for “The present invention was described based on a series of experiments examining the biological basis for CA-MRSA strains versus HA-MRSA strains, focusing on the role of PBPs in CA-MRSA and generally in β-lactam resistance. Experiments”
as §1

SMILES	affinity for PBP4 (PBP4)	effect on oxacillin MICs (CA- and HA-MRSA strains)	MIC (COL wild-type)	MIC (MW2 (USA400) wild-type)	MIC (USA300 wild-type)	MIC (MW2 ex Δpbp4)	MIC (MW2 Δpbp3/4)	MIC (MW2 Δpbp3)	MIC (MW2 Δpbp4::pbp4)	MIC (MW2 Δpbp4; Staphylococcus aureus, read-out: MICs)	reduction in MIC on loss of pbp4 (MW2 Δpbp4; {})	MIC (N315 wild-type)	MIC (USA300 Δpbp4; Staphylococcus aureus, USA300, read-out: MICs)	reduction in MIC on loss of pbp4 (USA300 Δpbp4; {})	MIC [1]	MIC (MW2 ex Δpbp3)	MIC (MW2 ex Δpbp3/4)	MIC (Mu50 wild-type)
CN(C)CCn1nnnc1SCC1=C(C(=O)O)N2C(=O)[C@@H](NC(=O)Cc3csc(N)n3)[C@H]2SC1 [cefotiam]	no affinity																	
CO/N=C(\C(=O)N[C@@H]1C(=O)N2C(C(=O)O)=C(COC(N)=O)CS[C@H]12)c1ccco1 [Cefuroxime, cefuroxime]	very low affinity	no effect whatsoever																
CCOc1ccc2ccccc2c1C(=O)N[C@@H]1C(=O)N2[C@@H]1SC(C)(C)[C@@H]2C(=O)O [NF, nafcillin]			64 µg/mL (≈ 154 µM)	16 µg/mL (≈ 38.6 µM)	16 µg/mL (≈ 38.6 µM)	1 µg/mL (≈ 2.41 µM)	1 µg/mL (≈ 2.41 µM)	16 µg/mL (≈ 38.6 µM)	16 µg/mL (≈ 38.6 µM)	1 µg/mL (≈ 2.41 µM)	16 fold	64 µg/mL (≈ 154 µM)	1 µg/mL (≈ 2.41 µM)	16 fold	16 µg/mL (≈ 38.6 µM)	16 µg/mL (≈ 38.6 µM)	1 µg/mL (≈ 2.41 µM)	256 µg/mL (≈ 618 µM)

From patent US9427468B2, “Compositions and methods for diagnosing and treating community-acquired methicillin-resistant Staphylococcus aureus” (priority 2007, dated 2016)
